In patent US12103915B2, “TEAD inhibitors and methods of uses thereof” (Insilico Medicine IP Limited, priority 2022, dated 2024):
Read-outs that look alike come from different tables or passages of the source.

What was measured:
NCI-H226 cells = assay: Cell growth assay (CellTiter-Glo); type: cell-based, human; settings: 7 days treatment, CellTiter-Glo luminescence, read-out: H226 CTG IC50
Protocol: Example A: Cell Growth Assay
CellTiter-Glo reagent (CTG reagent, Promega, G7573).
[…] Also seeding an extra plate as Day 0 control measurement. The microplates were incubated at 37° C., 5% CO2 overnight.
Compounds were 3-fold serial diluted in DMSO and final top-concentration was […], 10 points. 0.3% DMSO as vehicle control. In addition, […] of CTG reagent was added into the extra plate and incubated at room temperature for 30 minutes and detected luminescence signals as Day 0 control by using EnVision (PerkinElmer, 2104 Mutilabel Reader).
Incubated other compounds treated plates at 37° C. for another 7 days and […] of CTG reagent was added into the plates and incubated at room temperature for 30 minutes and detected luminescence signals.
Day 0 luminescence signals were used as negative control or baseline. • Signalday0=average luminescence signals of Day 0 control cells. • Signalblank control=average luminescence signals of blank control. • SignalDMSO vehicle control=average luminescence signals of Day 7 DMSO vehicle control cells. • Signalcpds treatment=luminescence signals of Day 7 compounds treatment cells. Inhibition %=1−(Signalcpds treatment−Signalblank control)/(SignalDMSO vehicle control−Signalblank control)*100.
(Inhibitory concentration 50% (IC50) and maximum inhibition % were calculated using dose response curves.

TEAD1 = TEAD1 (Homo sapiens, UniProt P28347); assay: Thermal shift assay TEAD1; type: binding
Protocol: (§1) Example B: Thermal Shift Assay
(§2) 1) Prepare a fresh dilution of Protein Thermal Shift™ Dye (Applied Biosystems, 1000×) to 8× by […].
(§3) 2) To ensure the same DMSO concentration, the compounds were diluted as follows: Prepare 10 mM stock solution of compounds;
(§4) The final DMSO concentration was 0.1%
(§5) 10 μM: Diluting stock solution to 100 μM by using PBS.
(§6) 1 μM: Diluting stock solution to 1 mM by using DMSO, then dilute to 10 μM by using PBS.
(§7) TEAD1: the stock concentration was 2.9 mg/ml; the final concentration was 0.2 mg/ml. TEAD2: the stock concentration was 1.8 mg/ml; the final concentration was 0.08 mg/ml.
(§8) 4) Place the appropriate reaction plate or tubes on ice, then prepare the protein melt reactions:
(§9) 5) Pipet each reaction up and down 10 times to mix well.
(§10) 6) Seal the plate with MicroAmp™ Optical Adhesive Film, spin it at 1000 rpm for 1 minute.
(§11) 7) Set up and run on the qPCR instrument.
(§12) Using thermal Shift™ Software v1.3 to analysis.

TEAD2 = TEAD2 (Homo sapiens, UniProt Q15562); assay: Thermal shift assay TEAD2; type: binding
Protocol: as §1, §2, §3, §4, §5, §6, §7, §8, §9, §10, §11, §12

TEAD3 = TEAD3 (Homo sapiens, UniProt Q99594); assay: Thermal shift assay TEAD3; type: binding
Protocol: as §1, §2, §3, §4, §5, §6
TEAD3: the stock concentration was 2.4 mg/ml; the final concentration was 0.1 mg/ml.
as §8, §9, §10, §11, §12

TEAD4 = TEAD4 (Homo sapiens, UniProt Q15561); assay: Thermal shift assay TEAD4; type: binding
Protocol: as §1, §2, §3, §4, §5, §6
TEAD4: the stock concentration was 2.3 mg/ml; the final concentration was 0.1 mg/ml.
as §8, §9, §10, §11, §12

TEAD2, sequence (Q15562 whole entry, species assumed): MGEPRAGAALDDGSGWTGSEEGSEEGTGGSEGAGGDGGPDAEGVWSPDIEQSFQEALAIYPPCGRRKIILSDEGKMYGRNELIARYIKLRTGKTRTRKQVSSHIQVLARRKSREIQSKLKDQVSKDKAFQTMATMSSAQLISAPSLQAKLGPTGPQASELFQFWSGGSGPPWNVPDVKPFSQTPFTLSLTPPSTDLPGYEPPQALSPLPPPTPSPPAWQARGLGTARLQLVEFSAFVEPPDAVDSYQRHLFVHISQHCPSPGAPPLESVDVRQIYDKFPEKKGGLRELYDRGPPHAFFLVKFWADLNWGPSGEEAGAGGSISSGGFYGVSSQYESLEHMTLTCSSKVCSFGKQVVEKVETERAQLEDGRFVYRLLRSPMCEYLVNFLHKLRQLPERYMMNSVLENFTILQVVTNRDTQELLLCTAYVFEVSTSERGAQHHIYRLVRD
TEAD1, sequence (P28347 whole entry, species assumed): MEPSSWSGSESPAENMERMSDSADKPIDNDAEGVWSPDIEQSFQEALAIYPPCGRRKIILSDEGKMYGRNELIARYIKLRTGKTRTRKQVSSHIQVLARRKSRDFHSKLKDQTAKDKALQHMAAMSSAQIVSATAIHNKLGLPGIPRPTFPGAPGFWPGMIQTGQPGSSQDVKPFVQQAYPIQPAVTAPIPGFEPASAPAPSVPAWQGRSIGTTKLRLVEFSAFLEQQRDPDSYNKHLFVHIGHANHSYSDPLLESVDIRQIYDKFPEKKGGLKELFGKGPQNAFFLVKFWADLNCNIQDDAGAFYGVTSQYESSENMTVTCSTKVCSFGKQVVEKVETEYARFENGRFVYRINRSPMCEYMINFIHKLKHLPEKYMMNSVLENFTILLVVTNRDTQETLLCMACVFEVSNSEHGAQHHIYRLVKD
TEAD3, sequence (Q99594 whole entry, species assumed): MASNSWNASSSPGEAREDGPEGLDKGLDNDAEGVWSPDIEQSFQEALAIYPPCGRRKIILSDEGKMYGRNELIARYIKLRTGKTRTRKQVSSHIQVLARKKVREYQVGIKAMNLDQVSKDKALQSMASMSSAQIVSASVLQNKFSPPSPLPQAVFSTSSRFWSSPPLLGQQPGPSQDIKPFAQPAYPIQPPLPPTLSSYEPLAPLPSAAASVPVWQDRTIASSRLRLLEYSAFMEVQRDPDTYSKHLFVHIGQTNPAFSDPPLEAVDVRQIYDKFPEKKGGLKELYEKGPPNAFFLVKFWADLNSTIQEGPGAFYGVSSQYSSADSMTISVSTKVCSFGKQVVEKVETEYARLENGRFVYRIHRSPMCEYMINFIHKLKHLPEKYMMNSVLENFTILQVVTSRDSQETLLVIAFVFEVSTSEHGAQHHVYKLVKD
TEAD4, sequence (Q15561 whole entry, species assumed): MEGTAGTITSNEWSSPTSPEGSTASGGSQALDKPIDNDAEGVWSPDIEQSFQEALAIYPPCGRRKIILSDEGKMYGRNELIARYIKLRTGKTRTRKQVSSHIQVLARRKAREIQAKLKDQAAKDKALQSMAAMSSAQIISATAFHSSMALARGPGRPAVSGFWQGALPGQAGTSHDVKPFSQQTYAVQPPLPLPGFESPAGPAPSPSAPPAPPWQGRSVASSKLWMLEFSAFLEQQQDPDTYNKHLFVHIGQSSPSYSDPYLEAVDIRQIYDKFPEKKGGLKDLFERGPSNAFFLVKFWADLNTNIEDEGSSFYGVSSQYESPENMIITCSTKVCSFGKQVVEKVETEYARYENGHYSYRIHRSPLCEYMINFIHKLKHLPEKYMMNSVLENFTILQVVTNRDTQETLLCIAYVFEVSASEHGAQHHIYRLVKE

Compound | IC50 (NCI-H226 cells; Homo sapiens, NCI-H226, 168 h) [µM] | TEAD1 ΔTm (TEAD1) [°C] | TEAD2 ΔTm (TEAD2) [°C] | TEAD3 ΔTm (TEAD3) [°C] | TEAD4 ΔTm (TEAD4) [°C] | IC50 (NCI-H226 cells) [µM]
Cn1cc2cc(Oc3ccc(C(F)(F)F)cc3)cc([C@H]3C[C@@H]3C(=O)N[C@@H](CO)c3ccccn3)c2n1 (single isomer, unassigned) [Example 59a] | 0.1 to 0.5 | 6.9 | 4.7 | 0.4 | 7.9 | –
O=C(O)[C@@H]1CC1c1cc(-c2ccc(C(F)(F)F)cc2)cc2cn[nH]c12 (mixture of isomers) [Example 1] | 1 to 30 | – | – | – | – | –
Cn1cc2cc(Oc3ccc(C(F)(F)F)cc3)cc(C3C[C@H]3C(=O)N3CCC[C@H]3C#N)c2n1 (single isomer, unassigned) [Example 73] | < 0.1 | 9.5 | 15.1 | 13.9 | 12.1 | –
CNS(=O)(=O)CCc1cc(Oc2ccc(C(F)(F)F)cc2)cc2c1NCCC2 [Example 143] | < 0.1 | 9.6 | 13.2 | 10.3 | 8.8 | –
Cn1cc2cc(Oc3ccc(C(F)(F)F)c(F)c3)cc([C@@H]3C[C@H]3C(=O)N3C[C@@H]4C[C@H]3C[C@@H]4O)c2n1 (single isomer, unassigned) [Example 140] | < 0.1 | 7.6 | 11.1 | 8.9 | 10.6 | –
C[C@H](CO)NC(=O)[C@@H]1CC1c1cc(Oc2ccc(C(F)(F)F)cc2)cc2cn(C)nc12 (single isomer, unassigned) [Example 55] | < 0.1 | 11.3 | 11.1 | 10.2 | 11.5 | –
Cn1cc2cc(Oc3ccc(F)c(F)c3)cc([C@H]3C[C@@H]3C(=O)N3CC(O)C3)c2n1 (single isomer, unassigned) [Example 90b] | < 0.1 | 7.7 | 10.5 | 2.9 | 10.3 | –
[2H]C([2H])([2H])NC(=O)[C@H]1CC1c1cc(Oc2ccc(C(F)(F)F)cc2)cc2cn(C)nc12 (single isomer, unassigned) [Example 53] | < 0.1 | 9.2 | 13.7 | 9.8 | 10.5 | –
CC(C)NC(=O)[C@@H]1CC1c1cc(Oc2ccc(C(F)(F)F)cc2)cc2cn(C)nc12 (mixture of isomers) [Example 56] | < 0.1 | 8.3 | 9 | 7.2 | 8.6 | –
CCNC(=O)[C@@H]1CC1c1cc(-c2ccc(C(F)(F)F)cc2)cc2c1=NC(C)N=2 (mixture of isomers) [Example 23] | 0.1 to 0.5 | 4.7 | 3.5 | 0.7 | 6.5 | –
O=C(O)[C@@H]1CC1c1cc(-c2ccc(C(F)(F)F)cc2)cc2cccnc12 (mixture of isomers) [Example 13] | < 0.1 | 7.7 | 6.6 | 1.8 | 8.3 | –
C[C@@H](C#N)NC(=O)[C@@H]1C[C@H]1c1cc(Oc2ccc(C(F)(F)F)cc2)cc2cn(C)nc12 (single isomer, unassigned) [Example 69] | < 0.1 | 10.9 | 13.9 | 11.6 | 12.9 | –
CNS(=O)(=O)[C@@H]1CC1c1cc(Oc2ccc(C(F)(F)F)cc2)cc2cn(C)nc12 (mixture of isomers) [Example 51] | 1 to 30 | 7.5 | 9.7 | 10.6 | 9.1 | –
O=C(O)[C@@H]1C[C@H]1c1cc(Oc2ccc(C(F)(F)F)cc2)cc2c1NCCC2 (racemic) [Example 144] | 1 to 30 | 10.6 | 18.2 | 13.1 | 9.9 | –
CNS(=O)(=O)CCc1cc(-c2ccc(C(F)(F)F)cc2)cc2c1cnn2C [Example 42] | < 0.1 | 7.3 | 4.1 | 3.5 | 3.8 | –
Cc1cn2cc(Oc3ccc(C(F)(F)F)cc3)cc(C3C[C@H]3C(=O)N3CC(O)C3)c2n1 (single isomer, unassigned) [Example 85a] | 1 to 30 | – | – | – | – | –
Cn1cc2cc(Oc3ccc(C(F)(F)F)cc3)cc([C@@H]3C[C@H]3C(=O)N3CC(O)C3)c2n1 (single isomer, unassigned) [Example 58a] | 1 to 30 | – | – | – | – | –
C[C@H](C#N)NC(=O)[C@@H]1C[C@H]1c1cc(Oc2ccc(C(F)(F)F)cc2)cc2cn(C)nc12 (single isomer, unassigned) [Example 68] | < 0.1 | – | – | – | – | –
O=C(O)[C@@H]1CC1c1cc(-c2ccc(C(F)(F)F)cc2)cc2[nH]ncc12 (mixture of isomers) [Example 5] | 1 to 30 | – | – | – | – | –
Cn1ncc2c(C3C[C@H]3C(=O)O)cc(-c3ccc(C(F)(F)F)cc3)cc21 (mixture of isomers) [Example 8] | – | – | – | – | – | 1 to 30
C=C(CS(=O)(=O)NC)c1cc(-c2ccc(C(F)(F)F)cc2)cc2c1cnn2C [Example 43] | 1 to 30 | – | – | – | – | –
Cn1ncc2c([C@@H]3C[C@H]3C(=O)NCCO)cc(-c3ccc(C(F)(F)F)cc3)cc21 (racemic) [Example 29] | 0.5 to 1 | – | – | – | – | –
Cn1cc2c(C3C[C@H]3C(=O)O)cc(-c3ccc(C(F)(F)F)cc3)cc2n1 (mixture of isomers) [Example 6] | 0.1 to 0.5 | – | – | – | – | –
Cn1cc2nc(Oc3ccc(C(F)(F)F)cc3)nc([C@H]3C[C@@H]3C(=O)N3CC(O)C3)c2n1 (single isomer, unassigned) [Example 109b] | – | 1.8 | 2.2 | 0.9 | 3.4 | –
Cn1cc2cc(Oc3cc(F)c(F)c(F)c3)cc([C@@H]3C[C@H]3C(=O)N3C[C@@H]4C[C@H]3C[C@@H]4O)c2n1 (single isomer, unassigned) [Example 138] | – | 4.2 | 6.8 | 2.3 | 6.4 | –
Cn1ncc2cc(-c3ccc(C(F)(F)F)cc3)cc(C3C[C@H]3C(=O)O)c21 (mixture of isomers) [Example 3] | 1 to 30 | – | – | – | – | –
Cn1cc2cc(Oc3ccc(C(F)(F)F)cc3)cc(C3C[C@H]3C(=O)NC[C@H]3C[C@@H](O)[C@@H](O)C3O)c2n1 (single isomer, unassigned) [Example 107] | – | 5.0 | 4.9 | 1.1 | 6.1 | –
Cn1cc2cc(Oc3ccc(C(F)F)cc3)cc([C@@H]3C[C@H]3C(=O)N3CC(O)C3)c2n1 (single isomer, unassigned) [Example 89a] | – | 0.0 | 3.3 | 0.2 | −0.2 | –
